Molecular target: Mitogen-activated protein kinase kinase kinase kinase 1 (Homo sapiens, UniProt Q92918)
Test: Biochemical Enzyme Assay
Description: HPK1 biochemical enzyme assay: HPK1 enzyme inhibition was measured using a microfluidic mobility shift assay. […] Test compounds were titrated in ten point curves (top final assay concentration 3 μM), and preincubated with enzyme/substrate mix for 30 min prior to initiation of the reaction by addition of ATP (1 mM final concentration) and substrate (1 μM final concentration; Carna Biosciences) diluted in assay buffer supplemented by MgCl2 (final assay concentration of 5 mM). Following 60 min incubation at RT, the reaction was terminated by addition of 60 μl/well termination buffer (Carna Biosciences) and signal determination using a Caliper EZ Reader (Perkin Elmer, UK).

Chain of Mitogen-activated protein kinase kinase kinase kinase 1 (Q92918 whole entry): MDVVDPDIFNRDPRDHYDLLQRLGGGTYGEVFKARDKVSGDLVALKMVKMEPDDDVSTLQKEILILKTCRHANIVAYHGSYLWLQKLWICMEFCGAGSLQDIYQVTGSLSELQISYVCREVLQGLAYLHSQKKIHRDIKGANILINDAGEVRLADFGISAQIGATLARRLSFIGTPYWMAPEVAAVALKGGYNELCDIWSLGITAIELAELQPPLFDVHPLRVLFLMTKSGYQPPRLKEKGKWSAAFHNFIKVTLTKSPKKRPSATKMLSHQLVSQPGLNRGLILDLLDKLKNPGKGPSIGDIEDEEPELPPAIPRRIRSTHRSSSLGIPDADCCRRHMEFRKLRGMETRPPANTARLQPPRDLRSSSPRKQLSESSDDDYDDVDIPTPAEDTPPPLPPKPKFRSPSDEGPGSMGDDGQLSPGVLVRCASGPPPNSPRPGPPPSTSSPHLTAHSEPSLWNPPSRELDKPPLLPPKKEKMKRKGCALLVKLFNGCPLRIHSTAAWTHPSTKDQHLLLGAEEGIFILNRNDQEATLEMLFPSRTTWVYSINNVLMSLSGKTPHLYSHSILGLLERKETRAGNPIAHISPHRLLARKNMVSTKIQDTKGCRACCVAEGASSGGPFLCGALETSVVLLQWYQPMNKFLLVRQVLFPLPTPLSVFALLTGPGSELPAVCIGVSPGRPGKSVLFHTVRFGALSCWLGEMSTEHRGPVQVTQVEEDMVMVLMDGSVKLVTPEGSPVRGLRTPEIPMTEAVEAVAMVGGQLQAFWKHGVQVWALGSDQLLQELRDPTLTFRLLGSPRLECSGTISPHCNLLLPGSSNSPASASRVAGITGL

IC50 | Compound
< 100 nM | Cn1ccc2c(-c3ncc(Nc4ccc(N5C[C@H]6COC[C@@H]5C6)cn4)c4c3CNC4=O)ccnc21 [US11034694, Compound I-309]
< 100 nM | CNC1CN(c2cccc(Cc3cnc(-c4ccnc5c4ccn5C)c4c3C(=O)NC4)n2)C1 [US11034694, Compound I-449]
< 100 nM | Cc1ccn2c(-c3ccc(Nc4ccc(N5CCO[C@@H](CP)C5)cn4)c4c3CNC4=O)cnc2c1F [US11034694, Compound I-460]

Source: BindingDB's records for patent US11034694 (Nimbus Saturn, 2021)
